Read-outs that look alike come from different tables or passages of the source. Square brackets hold non-standard residues; d marks the D form. Ends that are not written are not given here. Peptide text beside a SMILES is read from it. * marks the point of attachment. 5FAM = O=C1OC2(c3ccc(O)cc3Oc3cc(O)ccc32)c2ccc(C(=O)*)cc21; Hyp = O=C(O)[C@@H]1C[C@@H](O)CN1

Experiment [1] has as its target T1, GBD (gelatin-binding domain, ^6FnI^1–2FnII^7–9FnI, residues 305–608) of human FN (Homo sapiens, UniProt P02751, H307D/N528Q/R534K).
T1 construct: FN fragments corresponding to residues 305–608 (GBD); made in house
Description: Fluorescence polarization titrations of 5-carboxyfluorescein-labelled collagen peptides with GBD. As to conditions: FA: fluorescence polarization, 75 nM N-terminal 5-carboxyfluorescein peptide, increasing protein, PBS, 25 °C, single binding model. From the text: (§1) FN fragments corresponding to residues 305–608 (GBD), 305–515 (^6FnI^1–2FnII^7FnI), and 516–608 (^8–9FnI) and bearing single amino acid substitutions to improve solubility and protein yields (H307D, N528Q, and R534K) were produced as described previously ([7], [26], [32]). Synthetic collagen peptides were purchased from GL Biochem (Shanghai, China); their sequences are provided in Table 1, and unless fluorescently tagged, they included a C-terminal tyrosine residue for UV determination of peptide concentration. Fluorescent peptides had 5-carboxyfluorescein attached to the N-terminal amine group.
Fluorescence polarization measurements were performed at 25 °C in PBS using SpectraMax M5 (Molecular Devices) and PHERAstar FS (BMG Labtech) fluorometers. […] Differences in fluorescence polarization were fit using a single binding model in the program Origin (OriginLab) ([33]).

For experiment [2], the target named is T2, ^8–9FnI (FN residues 516–608) (Homo sapiens, UniProt P02751, N528Q/R534K).
T2 construct: and 516–608 (^8–9FnI); made in house
Kind of experiment: ^1H-^15N heteronuclear single quantum correlation NMR titrations with ^8–9FnI. The conditions noted are these: NMR ^1H-^15N HSQC titration, PBS pH 7.2, 25 °C; for Kd: single binding event fit. Type of experiment: binding.
Source text: as §1
(§2) NMR spectrometers used superconducting magnets (Oxford Instruments) at 950- and 500-MHz proton resonance frequencies (home-built or Bruker AVANCE II consoles and room temperature or cryogenic probe heads, respectively). Spectra were recorded in PBS (20 mM Na2HPO4 (pH 7.2) and 150 mM NaCl) with 1% 4,4-dimethyl-4-silapentane-1-sulfonic acid as a calibration standard. Experiment temperatures were optimized to avoid resonance broadening due to intermediate exchange phenomena and corresponded to 25 °C (^8–9FnI) or 37 °C (^6FnI^1–2FnII^7FnI). Sequential chemical shift assignments were performed earlier ([7], [26]). Analysis of spectral perturbations upon protein interactions and determination of equilibrium parameters were performed as described ([33]).

The target in experiment [3] is T2, ^8–9FnI (FN residues 516–608). The conditions noted are these: NMR titration; cited from earlier work. From the text: TABLE 1 KD values for collagen I peptide binding to FN fragments α1 and α2 chain numbering is taken to begin at the estimated start of the helical region. “O” in peptide sequences denotes 4-hydroxyproline. NMR, ^1H-^15N heteronuclear single quantum correlation NMR titrations; FA, fluorescence polarization titrations using N-terminal 5-carboxyfluorescein labeling. In titrations where no binding was | column: KD / ^8–9FnI || To firmly establish the elusive molecular interplay between the GBD and the most common collagen (type I), we first need to understand the exact nature of the binding site. […] At a distance of ∼1/10 (D-period 1, peptides AN and CN) or 3/4 (D-period 4, peptides BN and DN) from the N terminus of the triple hel ... || FIGURE 3. GBD-binding sites on collagen type I. A, schematic representation of the collagen type I α1 and α2 chains and the two FN-binding sites at 1/10 and 3/4 sequence distance from the collagen N terminus. ^8–9FnI-binding sites (peptides AN, BN, CN, and DN) are shown in blue, with the sequences immediately C-terminal thereof (peptides AC, BC, CC, and DC) shown in red. Dissociation constants are indicated. Highlighted in green is the only site where the two GBD subfragments, ^6FnI^1–2FnII^7FnI and ^8–9FnI, bind collagen type I cooperatively. B, amino acid sequences of peptides A–D. Conserved ...
Target sequence in this assay (P02751 516-608 N528Q/R534K): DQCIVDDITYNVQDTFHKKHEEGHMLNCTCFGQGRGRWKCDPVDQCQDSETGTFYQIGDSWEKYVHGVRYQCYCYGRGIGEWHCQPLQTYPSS

Experiment [4] addresses collagen type I alpha2 peptide D, G772-G820, 5-carboxyfluorescein labelled. Description: fluorescence polarisation; 75 nM 5-carboxyfluorescein-labelled peptide, increasing concentrations of protein, 96-well plates, 25 °C, PBS; single binding model. In general terms: Fluorescence polarisation rises when a labelled molecule tumbles more slowly, as on binding a larger partner.

Experiment [5] concerns the target collagen type I alpha2 peptide C, Q72-G118, 5-carboxyfluorescein labelled. Described as above.
Experiment [6] addresses collagen type I alpha1 peptide B, G772-G820, 5-carboxyfluorescein labelled. The experiment is described as above.
Experiment [7] concerns the target collagen type I alpha1 peptide A, G70-G118, 5-carboxyfluorescein labelled. The experiment is described as above.
For experiment [8], the target named is T3, ^6FnI^1–2FnII^7FnI (FN residues 305–515) (Homo sapiens, UniProt P02751, H307D).
T3 construct: 305–515 (^6FnI^1–2FnII^7FnI); made in house
T3 sequence (P02751 305-515 H307D): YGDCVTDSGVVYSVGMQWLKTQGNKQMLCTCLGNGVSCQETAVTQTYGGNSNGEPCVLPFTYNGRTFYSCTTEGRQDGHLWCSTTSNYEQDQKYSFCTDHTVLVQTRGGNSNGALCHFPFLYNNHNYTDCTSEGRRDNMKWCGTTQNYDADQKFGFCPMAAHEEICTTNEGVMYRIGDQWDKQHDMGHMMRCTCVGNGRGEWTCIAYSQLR
Description: ^1H-^15N heteronuclear single quantum correlation NMR titrations with ^6FnI^1–2FnII^7FnI. Type of experiment: binding. The conditions noted are these: NMR ^1H-^15N HSQC titration, chemical shift analysis, PBS pH 7.2, 37 °C.
Source text: as §1, §2

For experiment [9], the target named is fibronectin modules 8-9FnI, residues 516-608 (human) (UniProt P02751). Description: NMR titration; 1H-15N HSQC of 8-9FnI, collagen peptide titrated in, PBS (20 mM Na2HPO4 pH 7.2, 150 mM NaCl), 25 °C; single binding event.

T1 sequence (P02751 305-608 H307D/N528Q/R534K): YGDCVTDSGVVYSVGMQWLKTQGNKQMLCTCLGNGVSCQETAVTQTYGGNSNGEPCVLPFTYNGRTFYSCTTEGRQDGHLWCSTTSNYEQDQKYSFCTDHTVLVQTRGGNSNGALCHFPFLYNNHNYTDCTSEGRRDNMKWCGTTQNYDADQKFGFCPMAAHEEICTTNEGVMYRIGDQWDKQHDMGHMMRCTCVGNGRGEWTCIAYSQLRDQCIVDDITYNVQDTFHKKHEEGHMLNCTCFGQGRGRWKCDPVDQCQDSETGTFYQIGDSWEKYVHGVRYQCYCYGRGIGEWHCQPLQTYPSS

Regarding “5FAM-GPQGIAGQRGVVGL[Hyp]GQRGERGF[Hyp]GL[Hyp]GPSGE[Hyp]GKQGPSGASGERGP[Hyp]G [B]”, in experiment [1], binding was characterised by a dissociation constant (Kd) of 15.2 ± 2 µM.

In the case of `CC(C)C[C@H](NC(=O)CNC(=O)[C@H](CO)NC(=O)[C@@H](NC(=O)CNC(=O)[C@H](CCCNC(=N)N)NC(=O)[C@H](CCC(N)=O)NC(=O)CN)C(C)C)C(=O)N1C[C@H](O)C[C@H]1C(=O)NCC(=O)N[C@@H](CCC(N)=O)C(=O)N[C@@H](CCCNC(=N)N)C(=O)NCC(=O)N[C@@H](CCC(=O)O)C(=O)N[C@@H](CCCNC(=N)N)C(=O)NCC(=O)N[C@@H](Cc1ccccc1)C(=O)N1C[C@H](O)C[C@H]1C(=O)NCC(=O)N[C@@H](CC(C)C)C(=O)N1C[C@H](O)C[C@H]1C(=O)NCC(=O)N[C@@H](Cc1ccc(O)cc1)C(=O)O` [BN-S783V] (H-GQRGVSGL[Hyp]GQRGERGF[Hyp]GL[Hyp]GY-OH), in [2], the “KD ^8–9FnI (NMR interaction regime, in words)” value is “fast interaction regime” and the dissociation constant (Kd) – broadly, the equilibrium constant for the complex coming apart – worked out at 96.5 ± 11.4 µM.

Regarding “BN: Synthetic collagen type I α1 peptide 775–799 with C-terminal tyrosine (GLPGQRGVVGLPGQRGERGFPGLPGY; 4-hydroxyproline at peptide positions 3, 12, 21 and 24 (printed O); its leading GLO differs from the native GIA in peptide B. The text and PDB 3)”, the Kd in experiment [3] was 5 ± 1 µM.

`CSCC[C@H](NC(=O)CNC(=O)[C@@H]1C[C@@H](O)CN1C(=O)[C@H](CC(C)C)NC(=O)CNC(=O)[C@H](C)NC(=O)[C@@H](NC(=O)CNC(=O)[C@@H]1C[C@@H](O)CN1C(=O)[C@H](CC(C)C)NC(=O)CN)[C@@H](C)O)C(=O)N[C@@H](CCCCN)C(=O)NCC(=O)N[C@@H](Cc1c[nH]cn1)C(=O)N[C@@H](CCCNC(=N)N)C(=O)NCC(=O)N[C@@H](Cc1ccccc1)C(=O)N[C@@H](CO)C(=O)NCC(=O)N[C@@H](CC(C)C)C(=O)N[C@@H](CC(=O)O)C(=O)NCC(=O)N[C@@H](Cc1ccc(O)cc1)C(=O)O` [AN] (H-GL[Hyp]GTAGL[Hyp]GMKGHRGFSGLDGY-OH) came in with a dissociation constant (Kd) in experiment [2] of 143 ± 17.3 µM.

As to “5FAM-GPQGLLGA[Hyp]GILGL[Hyp]GSRGERGL[Hyp]GVAGAVGEPGPLGIAGP[Hyp]GARGP[Hyp]G [D]”, the Kd in experiment [1] stood at 5.8 ± 1 µM.

Turning to “gelatin-binding domain (GBD) of human fibronectin, 6FnI1-2FnII7-9FnI, residues 305-608 (from UniProt P02751 305-608) (domain or fragment)”, the dissociation constant (Kd) in experiment [4] stood at 6 µM; in [5], 26 µM; in experiment [6] it was 15 µM; in [7] it was 98 µM.

Consider `CC[C@H](C)[C@H](NC(=O)CNC(=O)[C@H](CCCCN)NC(=O)[C@H](Cc1ccccc1)NC(=O)CNC(=O)[C@@H]1C[C@@H](O)CN1C(=O)[C@H](CC(C)C)NC(=O)CNC(=O)[C@@H]1C[C@@H](O)CN1C(=O)[C@@H](NC(=O)CNC(=O)[C@@H]1C[C@@H](O)CN1C(=O)[C@H](Cc1ccccc1)NC(=O)CN)[C@@H](C)O)C(=O)N[C@@H](CCCNC(=N)N)C(=O)NCC(=O)N[C@@H](Cc1c[nH]cn1)C(=O)N[C@@H](CC(N)=O)C(=O)NCC(=O)N[C@@H](CC(C)C)C(=O)N[C@@H](CC(=O)O)C(=O)NCC(=O)N[C@@H](Cc1ccc(O)cc1)C(=O)O` [CN] (H-GF[Hyp]GT[Hyp]GL[Hyp]GFKGIRGHNGLDGY-OH), for which, in experiment [2], the dissociation constant Kd was 2000 ± 200 µM.

In turn, “5FAM-GPQGARGL[Hyp]GTAGL[Hyp]GMKGHRGFSGLDGAKGDAGPAGPKGE[Hyp]GS[Hyp]GENG [A]” showed a Kd in experiment [1] of 97.9 ± 8.2 µM.

For the molecule “DN: Synthetic collagen type I α2 peptide 778–799 with C-terminal tyrosine (GAPGILGLPGSRGERGLPGVAGY; 4-hydroxyproline at peptide positions 3, 9 and 18 (printed O); C-terminal Tyr added for UV quantification)”, in [3], the Kd is 8 ± 2 µM.

As for `CC(C)C[C@H](NC(=O)CNC(=O)[C@H](CC(=O)O)NC(=O)[C@H](CC(C)C)NC(=O)CNC(=O)[C@H](CC(N)=O)NC(=O)[C@H](Cc1c[nH]cn1)NC(=O)CN)C(=O)N[C@@H](CCCCN)C(=O)NCC(=O)N[C@@H](CCC(N)=O)C(=O)N1C[C@H](O)C[C@H]1C(=O)NCC(=O)N[C@@H](C)C(=O)N1C[C@H](O)C[C@H]1C(=O)NCC(=O)N[C@H](C(=O)N[C@@H](CCCCN)C(=O)NCC(=O)N[C@@H](CCC(=O)O)C(=O)N1C[C@H](O)C[C@H]1C(=O)NCC(=O)N[C@@H](C)C(=O)N1C[C@H](O)C[C@H]1C(=O)NCC(=O)N[C@@H](CCC(=O)O)C(=O)N[C@@H](CC(N)=O)C(=O)NCC(=O)N[C@@H](Cc1ccc(O)cc1)C(=O)O)C(C)C` [CC] (H-GHNGLDGLKGQ[Hyp]GA[Hyp]GVKGE[Hyp]GA[Hyp]GENGY-OH), the dissociation constant Kd in [8] stood at 248 ± 11.6 µM.

The molecule “5FAM-QGARGF[Hyp]GT[Hyp]GL[Hyp]GFKGIRGHNGLDGLKGQ[Hyp]GA[Hyp]GVKGE[Hyp]GA[Hyp]GENG [C]” returned a Kd in experiment [1] of 25.6 ± 2.6 µM.

“collagen type I alpha1 peptide BN with Val783 changed to serine, G778-G799 with C-terminal tyrosine”: the equilibrium dissociation constant (Kd) in [9] came out at 97 µM.
